Blank lines part the entries; values can stand above or below the compound they belong to.
Tested on: 186277-243-T-J2-PDC complex spheroids, viability
Assay: Anticancer human tumor 186277-243-T-J2-PDC patient-derived colon adenocarcinoma cell line growth inhibition [RAS]
Details: for viability, T/C: stronger effect = lower value
Method in brief: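 Agents were tested in combination matrices in half-log decrements from a top concentration at or near clinical Cmax (10 microM if undetermined). Targets were multi-cell spheroids of tumour lines plus HUVEC and MSC stromal cells.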
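Also: spheroids exposed to compounds for 7 days before viability read.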

IC50 (curve of first compound, second compound 0.000949 µM): 60.3 nM
IC50 (curve of first compound, second compound 0.003 µM): 76 nM
IC50 (curve of first compound, second compound 0.00949 µM): 59 nM
IC50 (curve of first compound, second compound 0.03 µM): 56.9 nM
IC50 (curve of first compound, second compound 0.0949 µM): 41.2 nM
IC50 (curve of first compound, second compound 0.3 µM): 24.9 nM
Compound: CC(C)n1nc(-c2ccc3oc(N)nc3c2)c2c(N)ncnc21 + CCn1c(-c2cccnc2C(C)OC)c2c3cc(ccc31)N1CCOC(CC(NC(=O)C(C(C)C)N(C)C(=O)C3(F)CCN(C(=O)C#CC(C)(C)N(C)C)CC3)C(=O)N3CCCC(N3)C(=O)OCC(C)(C)C2)C1
viability, T/C (second compound 0.000949 µM, first compound 0.000316 µM): 115%
viability, T/C (second compound 0.000949 µM, first compound 0.001 µM): 98.1%
viability, T/C (second compound 0.000949 µM, first compound 0.00316 µM): 98.5%
viability, T/C (second compound 0.000949 µM, first compound 0.01 µM): 100%
viability, T/C (second compound 0.000949 µM, first compound 0.0316 µM): 70.6%
viability, T/C (second compound 0.000949 µM, first compound 0.1 µM): 33.7%
viability, T/C (second compound 0.003 µM, first compound 0.000316 µM): 88%
viability, T/C (second compound 0.003 µM, first compound 0.001 µM): 99%
viability, T/C (second compound 0.003 µM, first compound 0.00316 µM): 97.1%
viability, T/C (second compound 0.003 µM, first compound 0.01 µM): 92.2%
viability, T/C (second compound 0.003 µM, first compound 0.0316 µM): 79.6%
viability, T/C (second compound 0.003 µM, first compound 0.1 µM): 40.5%
viability, T/C (second compound 0.00949 µM, first compound 0.000316 µM): 90.1%
viability, T/C (second compound 0.00949 µM, first compound 0.001 µM): 115%
viability, T/C (second compound 0.00949 µM, first compound 0.00316 µM): 93%
viability, T/C (second compound 0.00949 µM, first compound 0.01 µM): 94.1%
viability, T/C (second compound 0.00949 µM, first compound 0.0316 µM): 69.3%
viability, T/C (second compound 0.00949 µM, first compound 0.1 µM): 33.6%
viability, T/C (second compound 0.03 µM, first compound 0.000316 µM): 106%
viability, T/C (second compound 0.03 µM, first compound 0.001 µM): 107%
viability, T/C (second compound 0.03 µM, first compound 0.00316 µM): 92.7%
viability, T/C (second compound 0.03 µM, first compound 0.01 µM): 90.2%
viability, T/C (second compound 0.03 µM, first compound 0.0316 µM): 70.3%
viability, T/C (second compound 0.03 µM, first compound 0.1 µM): 31.2%
viability, T/C (second compound 0.0949 µM, first compound 0.000316 µM): 103%
viability, T/C (second compound 0.0949 µM, first compound 0.001 µM): 98.4%
viability, T/C (second compound 0.0949 µM, first compound 0.00316 µM): 105%
viability, T/C (second compound 0.0949 µM, first compound 0.01 µM): 95.4%
viability, T/C (second compound 0.0949 µM, first compound 0.0316 µM): 55.8%
viability, T/C (second compound 0.0949 µM, first compound 0.1 µM): 31%
viability, T/C (second compound 0.3 µM, first compound 0.000316 µM): 101%
viability, T/C (second compound 0.3 µM, first compound 0.001 µM): 100%
viability, T/C (second compound 0.3 µM, first compound 0.00316 µM): 91.7%
viability, T/C (second compound 0.3 µM, first compound 0.01 µM): 72.5%
viability, T/C (second compound 0.3 µM, first compound 0.0316 µM): 44.3%
viability, T/C (second compound 0.3 µM, first compound 0.1 µM): 21.3%

IC50 (curve of compound): > 1000 nM
Compound: C=CC(=O)Nc1cc(Nc2nccc(-c3cn(C)c4ccccc34)n2)c(OC)cc1N(C)CCN(C)C
viability, T/C (compound 0.00316 µM): 91.2% [middle of 4 runs]
viability, T/C (compound 0.0316 µM): 93.3% [middle of 4 runs]
viability, T/C (compound 0.1 µM): 99.4% [middle of 4 runs]
viability, T/C (compound 0.316 µM): 94.8% [middle of 4 runs]

IC50 (curve of compound): 79.7 nM [middle of 4 runs]
Compound: O=C(c1ccc(F)c(F)c1Nc1ccc(I)cc1F)N1CC(O)([C@@H]2CCCCN2)C1
viability, T/C (compound 0.00316 µM): 102% [middle of 4 runs]
viability, T/C (compound 0.01 µM): 93.3% [middle of 4 runs]
viability, T/C (compound 0.0316 µM): 94.1% [middle of 4 runs]
viability, T/C (compound 0.1 µM): 39.6% [middle of 4 runs]
viability, T/C (compound 0.316 µM): 9.71% [middle of 4 runs]
viability, T/C (compound 1 µM): 5.17% [middle of 4 runs]

— PubChem BioAssay AID2060908 (Molecular Pharmacology Branch, DTP, NCI, 2025)
